In the Deep4Chem optical property database one finds emission maximum data, which are given here for 37 molecules.

Values joined by “and” are separate entries in the source; they are usually repeats but may differ in a detail not shown here. Identical values can stand only once.

The series in a line: solvent given as SMILES.

For `COCCOCCOCCOc1ccc(/C=C/C2=[N+]3C(=C(c4cc(OC)cc(OC)c4)c4c(C)c(I)c(/C=C/c5ccc(OCCOCCOCCOC)cc5)n4[B-]3(F)F)C(C)=C2I)cc1`, the emission maximum runs as follows: (in C1CCOC1) 684 nm; (in CS(C)=O) 695 nm; (in ClCCl) 687 nm.

As to `Cc1c(C)c(-c2cccnc2)c(C)c(C)c1B(c1c(C)c(C)c(-c2cccnc2)c(C)c1C)c1c(C)c(C)c(-c2cccnc2)c(C)c1C`, the emission maximum (in ClCCl) came to 403 nm.

For `CC(=O)c1c2c(c(C(C)=O)c3c1OC(CC(=O)O)O3)OCO2`, the emission maximum (in CC#N) turned out to be 553 nm.

`c1cc(-c2ccc3sc4ccccc4c3c2)cc(-c2cc(-c3cccc(-c4ccc5sc6ccccc6c5c4)c3)ncn2)c1`: the emission maximum (in ClCCl) is 411 nm.

Take `CCOC(=O)/C(C#N)=C/c1cc2c3ccccc3n(C)c2cc1OC`: the emission maximum is on record as 460 nm (in C1CCOC1); 486 nm (in CC#N); 458 nm (in CCOC(C)=O); 486 nm (in CN(C)C=O); 486 nm (in CO); 488 nm (in CS(C)=O). Further, the emission maximum reads like this: (in Cc1ccccc1) 446 nm; (in ClC(Cl)Cl) 468 nm; (in ClCCl) 472 nm.

As for `c1ccc(C2=C(c3ccccn3)[Si](c3ccccc3)(c3ccccc3)c3ccccc32)cc1`, the emission maximum (in ClCCl) amounted to 406 nm.

On to `CCOc1ccc2c(-c3nc(-c4ccccc4)no3)cc(=O)oc2c1`, for which the emission maximum (in CCO) stood at 468 nm and the emission maximum (in ClC(Cl)Cl) is 454 nm.

Turning to `COc1ccc2c(c1)c1ccccc1n2-c1nc2ccccc2nc1-n1c2ccccc2c2cc(OC)ccc21`, the emission maximum by setting is: (in C1CCOC1) 588.86 nm; (in CCCCCC) 508.97 nm; (in Cc1ccccc1) 560 nm.

As for `c1ccc2c(-c3cc(-c4nccs4)nc(-c4nccs4)c3)cccc2c1`, the emission maximum (in CC#N) is listed as 386 nm, the emission maximum (in CCCCCC) is recorded as 359 nm, the emission maximum (in CO) is recorded as 422 nm and the emission maximum (in ClC(Cl)Cl) is 377 nm.

With `CC(C)CCCCN1CCc2c1ccc1c3c(ccc21)CCCC3=O`, the emission maximum reads like this: (in C1CCCCC1) 507 nm; (in CC#N) 625 nm; (in CC(C)O) 637 nm; (in CCC(C)=O) 612 nm; (in CCO) 539 nm; (in CCOC(C)=O) 586 nm. Moreover, the emission maximum is given as 643 nm (in CS(C)=O), 554 nm (in Cc1ccccc1), 595 nm (in ClCCl) and 573 nm (in Clc1ccccc1).

Consider `CC(C)(C)c1ccc(C(C)(C)C)c(N2C(=O)c3cccc4c(-c5ccc(-c6ccccc6)s5)ccc(c34)C2=O)c1`, for which the emission maximum is recorded as 572 nm (in CO), 557 nm (in CS(C)=O) and 493 nm (in Cc1ccccc1).

On to `CCOC(=O)c1cc(C(=O)OCC)c2c(C)ccc(OC(=O)OC(C)(C)C)c2n1`, for which the emission maximum (in CCO) turned out to be 505 nm.

For the molecule `c1ccc2c(c1)-c1ccccc1C21c2cc(-c3ccc4ccc5cccc6ccc3c4c56)ccc2-c2ccc(-c3ccc4ccc5cccc6ccc3c4c56)cc21`, the emission maximum (in ClC(Cl)Cl) was 421 nm.

`CCCCCCCCCCCCn1c(-c2cc(-c3nc4ccccc4n3CCCCCCCCCCCC)cc(-c3nc4ccccc4n3CCCCCCCCCCCC)c2)nc2ccccc21` had an emission maximum (in C1CCOC1) of 367.4 nm.

As to `CCCN(c1ccccc1)c1ccc2c(c1)C(CC)(CC)c1cc(/C=C/c3ccc(/C=C(\C#N)C(=O)O)s3)ccc1-2`, the emission maximum came out at 572 nm (in C1CCOC1); 617 nm (in C1COCCO1); 531 nm (in CC#N); 575 nm (in CC(C)=O); 552 nm (in CCOC(C)=O); 593 nm (in CN(C)C=O). The emission maximum is, setting by setting: (in CS(C)=O) 514 nm; (in ClCCl) 600 nm.

For the molecule `COc1ccccc1-c1c2ccc(=[N+]3CCCCC3)cc-2oc2cc(N3CCCCC3)ccc12`, the emission maximum stood at 586 nm (in CCO) and 585 nm (in ClCCl).

For the molecule `F[Si](c1ccccc1)(c1c2ccccc2cc2ccccc12)c1c2ccccc2cc2ccccc12`, where the note is “in C1CCOC1”, the emission maximum was found to be 409 nm.

As to `CN(C)c1c2ccccc2cc2ccccc12`, the emission maximum is, setting by setting: (in C1CCCCC1) 391 nm; (in C1CCOC1) 392 nm; (in C1COCCO1) 392 nm; (in CC#N) 390 nm; (in CCO) 389 nm; (in CN(C)C=O) 392 nm. The same molecule had an emission maximum (in CO) of 389 nm; an emission maximum (in COCCOC) of 392 nm; an emission maximum (in CS(C)=O) of 395 nm; an emission maximum (in O) of 390 nm; an emission maximum (in OCC(O)CO) of 393 nm; an emission maximum (in OCCO) of 392 nm.

Take `c1ccc(-c2cc(-c3ccc(N4c5ccccc5C(c5ccccc5)(c5ccccc5)c5ccccc54)cn3)nc(-c3ccccc3)n2)cc1`: the emission maximum reads like this: (in Cc1ccccc1) 480 nm; (in O=P(c1ccccc1)(c1ccccc1)c1ccccc1Oc1ccccc1P(=O)(c1ccccc1)c1ccccc1) 486 nm.

Under “in ClC(Cl)Cl”, `CCCCc1cc(-c2cccc(COC)c2)oc1-c1cccc(-c2oc(-c3cccc(COC)c3)cc2CCCC)c1` returned an emission maximum of 371 nm.

`C[SiH](C)c1ccc([SiH](C)C)c2ccccc12` came in with an emission maximum (in C1CCCCC1) of 333 nm.

`O=C1c2cccc3cc(C#CC#Cc4cc5c6c(cccc6c4)C(=O)N(c4ccccc4)C5=O)cc(c23)C(=O)N1c1ccccc1` returned an emission maximum (in ClCCl) of 421 nm.

Turning to `CC(C)(C)c1ccc(-c2nc3c4ccc(-c5cc6ccccc6c6ccccc56)cc4c4cc(-c5cc6ccccc6c6ccccc56)ccc4c3n2-c2ccc(C(C)(C)C)cc2)cc1`, the emission maximum came to 388 nm (in C1CCOC1); 386 nm (in C1COCCO1); 405 nm (in CC#N); 382 nm (in CCCCCC); 384 nm (in CCCCOCCCC); 384 nm (in CCN(CC)CC). The emission maximum by setting is: (in CCOC(C)=O) 388 nm; (in CCOCC) 384 nm; (in CN(C)C=O) 404 nm; (in Cc1ccccc1) 385 nm; (in ClC=C(Cl)Cl) 388 nm; (in ClCCl) 404 nm.

As for `CCN(CC)c1ccc2c(c1)oc(=O)c1c(=O)oc3cc(C#Cc4ccc(C#N)cc4)ccc3c12`, the emission maximum is 625 nm (in CS(C)=O) and 572 nm (in ClCCl).

On to `COc1cc(OC)cc(C2=[O+][B-](F)(F)OC(c3ccccc3)=C2)c1`, for which the emission maximum is listed as 602.29 nm (in CC#N); 590.78 nm (in CC(C)=O); 446.17 nm (in CCCCCC); 505.51 nm (in Cc1ccccc1); 554 nm (in ClCCl).

Where the note is “in C1CCOC1”, `Oc1ccc(C2=N[N+]3=Cc4c(ccc5ccccc45)O[B-]3(c3ccc([B-]45OC(c6ccc(O)cc6)=N[N+]4=Cc4c(ccc6ccccc46)O5)cc3)O2)cc1` (configuration not stated) showed an emission maximum of 477 nm.

With `CN(C)c1ccc(C2=Cc3ccc4ccccc4[n+]3[B-](F)(F)O2)cc1`, the emission maximum was determined as 540 nm (in C1CCOC1); 516 nm (in C1COCCO1); 478 nm (in CC1CCCCC1); 573 nm (in CC#N); 534 nm (in CCOC(C)=O); 509 nm (in CCOCC). Further, the emission maximum is reported as 581 nm (in CN(C)C=O), 564 nm (in CO), 562 nm (in COC(C)=O) and 521 nm (in ClC(Cl)Cl).

Consider `Cc1ccc(-c2c3nc(c(-c4ccc(C)cc4)c4ccc([nH]4)c(-c4ccc(OC(=O)C(C)c5ccc(CC(C)C)cc5)cc4)c4nc(c(-c5ccc(C)cc5)c5ccc2[nH]5)C=C4)C=C3)cc1` (configuration not stated), for which the emission maximum (in ClCCl) came out at 652 nm.

Consider `Cc1cc(O)c(C(=O)/C=C/c2ccc(Cl)cc2Cl)c(=O)o1`, for which the emission maximum by setting is: (in CC#N) 473 nm; (in ClCCl) 472 nm.

With `CN1/C(=C/C=C/C2=[N+](CCCCCC(=O)O)c3ccc(S(=O)(=O)[O-])cc3C2(C)C)C(C)(C)c2cc(S(=O)(=O)[O-])ccc21`, the emission maximum (in O) turned out to be 562 nm.

Turning to `CN(C)c1ccc(-c2cc(-c3ccccc3)nn2C)cc1`, where the note is “in ClCCl”, the emission maximum was found to be 365 nm.

Molecule `CCCCN(CCCC)c1ccc(C#Cc2cc(C#Cc3ccc([N+](=O)[O-])cc3)c(C#Cc3ccc(N(CCCC)CCCC)cc3)cc2C#Cc2ccc([N+](=O)[O-])cc2)cc1` gave an emission maximum (in ClCCl) of 557 nm.

Consider `CCCCOc1cc2ccccc2c2c1oc1cc3ccccc3cc12`, for which the emission maximum (in C1CCOC1) came out at 381 nm.

Regarding `Cc1ccc(-c2cc(/C=C/c3ccc(N(c4ccccc4)c4ccccc4)cc3)c(-c3ccc(C)cc3)cc2/C=C/c2ccc(N(c3ccccc3)c3ccccc3)cc2)cc1`, for the setting “in ClCCl”, the emission maximum stood at 492 nm.

As for `c1ccc2cc3ccccc3cc2c1`, the emission maximum reads like this: (in C1CCCCC1) 400 nm and 407.66 nm; (in C1CCOC1) 397 nm; (in CO) 400 nm.

For the molecule `C(#Cc1nc2ccccc2s1)c1ccc(N(c2ccc(C#Cc3nc4ccccc4s3)cc2)c2ccc(C#Cc3nc4ccccc4s3)cc2)cc1`, the emission maximum (in Cc1ccccc1) is reported as 434 nm.

In turn, `COc1cn2cc(-c3ccc(C#N)cc3)[n-][n+]2c1` had an emission maximum (in ClCCl) of 505 nm.
